Measurements reported in patent US10550143B2, “C,O-spiro aryl glycoside compounds, preparation therefor and use thereof” (SHANGHAI INSTITUTE OF MATERIA MEDICA, CHINESE ACADEMY OF …, priority 2015, dated 2020).
Marks after values point to notes of the source that are not given here.

Key:
SD rats = test: Acute administration of A28 at multiple doses, urinary glucose of SD rats; format: in vivo, rat; conditions: single oral 0.3, 1, 3 and 10 mg/kg, within 24 h
Procedure: (1) 72 normal male SD rats were selected and randomly divided into 9 groups according to body weight and blood glucose, 8 in each group. […] After oral gavage, the rats were placed in rats metabolic cages, and urine was collected after 24 h, and the urine volume was recorded, then preserved under −20° C. Rats take food and water freely during the experimental period.
(2) Index Determination: Glucose levels in urine are measured by the glucose assay kit.

db/db mice [1] = test: Chronic administration, glucose-stimulated insulin release in db/db mice; format: in vivo, mouse; conditions: for Insulin AUC / Insulin (ng/ml) 0 min / Insulin (ng/ml) 15 min / Insulin (ng/ml) 30 min / Insulin (ng/ml) 60 min / Insulin (ng/ml) pre: glucose-stimulated insulin release, chronic administration
Procedure: (§1) Oral gavage administrated, daily dose volume was 10 mL/kg, administered once daily. Administration time was 9: 00-10:00 daily, and the administration period was 5 weeks.
The fourth week after administration, the mice were starved for 6 hours after morning administration and were orally administrated with glucose (1.5 g/kg), and blood was collected from the tail (10 μL EDTA+20 μL tail blood). Centrifuged and the supernatant was taken, stored at −20° C. for insulin test.

db/db mice [2] = test: Chronic administration, oral glucose tolerance in db/db mice; format: in vivo, mouse; conditions: for Blood glucose AUC0-2 h / Blood glucose (mmol/L) 0 min / Blood glucose (mmol/L) 15 min / Blood glucose (mmol/L) 30 min / Blood glucose (mmol/L) 60 min / Blood glucose (mmol/L) 90 min / Blood glucose (mmol/L) 120 min / AUC0-2 h reduction rate (%): glucose tolerance, chronic administration; for AUC0-2 h reduction rate (%): vs vehicle
Procedure: as §1
The glucose tolerance of mice of normal control group, model control group, test substance group and positive control group were determined 3 weeks after administration of drug, oral administrated with 1.5 g/kg of glucose, and taken 2 μL of blood on the tail. 4 μL of normal saline was added to 96 well sharp bottom plate to dilute evenly, and then the blood glucose was measured. The blood glucose levels before the sugar administration and at 15, 30, 60, 90 and 120 min after the sugar administration were measured. The true blood glucose level was calculated and the area under the blood glucose curve within 120 min was calculated by the following formula: AUC0-2h (mmol/L·h)=(BG0+BG15)×0.25/2+(BG15+BG30)×0.25/2+(BG30+BG60)×0.5/2+(BG60+[…])×1.0/2 Note: BG0, BG15, BG30, BG60 and BG120 represent the blood glucose levels before the sugar administration, and at 15, 30, 60, and 120 min after sugar administration, respectively. Average hypoglycemic rate %=(solvent control group AUC0-2h−administration group AUC0-2h)/solvent control group AUC0-2h*100%

CCc1ccc(Cc2cc3c(cc2Cl)CO[C@]32O[C@H](C)[C@@H](O)[C@H](O)[C@H]2O)s1 [Example A28, (1S,3′R,4′S,5′S,6′R)-6′-methyl-6-((5-ethylthienyl)-2-methyl)-5-chloro-3′,4′,5′,6′-tetrahydro-3H-spiro[isobenzofuran-1,2′-pyran]-3′,4′,5′-triol]
urine glucose excretion (SD rats): significantly promoted in a dose-dependent manner | glucose-stimulated insulin release (db/db mice [1]; four weeks chronic administration, 0.3 mg/kg and 1 mg/kg): significantly improved glucose-stimulated insulin release in db/db mice in a dose-dependent manner | Insulin AUC (db/db mice [1]; dose 0.3 mg/kg): 43.85 ± 5.69 | Insulin (ng/ml) 0 min (db/db mice [1]; dose 0.3 mg/kg): 21.58 ± 2.48 ng/mL | Insulin (ng/ml) 15 min (db/db mice [1]; dose 0.3 mg/kg): 51.67 ± 7.86 ng/mL | Insulin (ng/ml) 30 min (db/db mice [1]; dose 0.3 mg/kg): 46.22 ± 8.10 ng/mL | Insulin (ng/ml) 60 min (db/db mice [1]; dose 0.3 mg/kg): 43.61 ± 4.85 ng/mL | Insulin (ng/ml) pre (db/db mice [1]; dose 0.3 mg/kg): 7.68 ± 0.79 ng/mL | Insulin AUC (db/db mice [1]; dose 1 mg/kg): 35.92 ± 5.00 | Insulin (ng/ml) 0 min (db/db mice [1]; dose 1 mg/kg): 17.47 ± 2.20 ng/mL | Insulin (ng/ml) 15 min (db/db mice [1]; dose 1 mg/kg): 41.94 ± 8.42 ng/mL | Insulin (ng/ml) 30 min (db/db mice [1]; dose 1 mg/kg): 40.07 ± 7.01 ng/mL | Insulin (ng/ml) 60 min (db/db mice [1]; dose 1 mg/kg): 32.89 ± 3.69 ng/mL | Insulin (ng/ml) pre (db/db mice [1]; dose 1 mg/kg): 7.86 ± 0.94 ng/mL | Insulin AUC (db/db mice [1]; dose 3 mg/kg): 32.49 ± 5.92 | Insulin (ng/ml) 0 min (db/db mice [1]; dose 3 mg/kg): 17.57 ± 4.54 ng/mL | Insulin (ng/ml) 15 min (db/db mice [1]; dose 3 mg/kg): 38.42 ± 8.58 ng/mL | Insulin (ng/ml) 30 min (db/db mice [1]; dose 3 mg/kg): 36.06 ± 8.77 ng/mL | Insulin (ng/ml) 60 min (db/db mice [1]; dose 3 mg/kg): 28.68 ± 8.81 ng/mL | Insulin (ng/ml) pre (db/db mice [1]; dose 3 mg/kg): 7.92 ± 1.60 ng/mL | Insulin AUC (db/db mice [1]; dose 10 mg/kg): 17.20 ± 1.59 | Insulin (ng/ml) 0 min (db/db mice [1]; dose 10 mg/kg): 9.02 ± 0.59 ng/mL | Insulin (ng/ml) 15 min (db/db mice [1]; dose 10 mg/kg): 16.70 ± 2.42 ng/mL | Insulin (ng/ml) 30 min (db/db mice [1]; dose 10 mg/kg): 13.42 ± 1.94 ng/mL | Insulin (ng/ml) 60 min (db/db mice [1]; dose 10 mg/kg): 27.45 ± 4.43 ng/mL | Insulin (ng/ml) pre (db/db mice [1]; dose 10 mg/kg): 7.45 ± 1.00 ng/mL | improvement of oral glucose tolerance compared with Dapagliflozin (db/db mice [2]; after 3 weeks of chronic administration): stronger than that of Dapagliflozin of the same dose | Blood glucose AUC0-2 h (db/db mice [2]; dose 0.3 mg/kg): 6.3 ± 1.3 | Blood glucose (mmol/L) 0 min (db/db mice [2]; dose 0.3 mg/kg): 12.3 ± 0.9 mmol/L | Blood glucose (mmol/L) 15 min (db/db mice [2]; dose 0.3 mg/kg): 22.7 ± 1.4 mmol/L | Blood glucose (mmol/L) 30 min (db/db mice [2]; dose 0.3 mg/kg): 21.4 ± 1.1 mmol/L | Blood glucose (mmol/L) 60 min (db/db mice [2]; dose 0.3 mg/kg): 13.5 ± 0.7 mmol/L | Blood glucose (mmol/L) 90 min (db/db mice [2]; dose 0.3 mg/kg): 12.5 ± 0.9* * mmol/L | Blood glucose (mmol/L) 120 min (db/db mice [2]; dose 0.3 mg/kg): 10.9 ± 1.0* * mmol/L | AUC0-2 h reduction rate (%) (db/db mice [2]; dose 0.3 mg/kg): 57.2% | Blood glucose AUC0-2 h (db/db mice [2]; dose 1 mg/kg): 4.7 ± 1.9 | Blood glucose (mmol/L) 0 min (db/db mice [2]; dose 1 mg/kg): 10.4 ± 1.0 mmol/L | Blood glucose (mmol/L) 15 min (db/db mice [2]; dose 1 mg/kg): 16.9 ± 0.8 mmol/L | Blood glucose (mmol/L) 30 min (db/db mice [2]; dose 1 mg/kg): 18.7 ± 0.7 mmol/L | Blood glucose (mmol/L) 60 min (db/db mice [2]; dose 1 mg/kg): 11.1 ± 0.5 mmol/L | Blood glucose (mmol/L) 90 min (db/db mice [2]; dose 1 mg/kg): 10.4 ± 0.6* * mmol/L | Blood glucose (mmol/L) 120 min (db/db mice [2]; dose 1 mg/kg): 8.7 ± 0.5 mmol/L | AUC0-2 h reduction rate (%) (db/db mice [2]; dose 1 mg/kg): 68.2% | Blood glucose AUC0-2 h (db/db mice [2]; dose 3 mg/kg): 6.1 ± 0.9 | Blood glucose (mmol/L) 0 min (db/db mice [2]; dose 3 mg/kg): 8.1 ± 1.0 mmol/L | Blood glucose (mmol/L) 15 min (db/db mice [2]; dose 3 mg/kg): 16.1 ± 2.4 mmol/L | Blood glucose (mmol/L) 30 min (db/db mice [2]; dose 3 mg/kg): 17.4 ± 2.6 mmol/L | Blood glucose (mmol/L) 60 min (db/db mice [2]; dose 3 mg/kg): 9.1 ± 1.0 mmol/L | Blood glucose (mmol/L) 90 min (db/db mice [2]; dose 3 mg/kg): 8.9 ± 0.8 mmol/L | Blood glucose (mmol/L) 120 min (db/db mice [2]; dose 3 mg/kg): 6.9 ± 0.8 mmol/L | AUC0-2 h reduction rate (%) (db/db mice [2]; dose 3 mg/kg): 58.9% | Blood glucose AUC0-2 h (db/db mice [2]; dose 10 mg/kg): 2.3 ± 0.8 | Blood glucose (mmol/L) 0 min (db/db mice [2]; dose 10 mg/kg): 7.2 ± 0.6 mmol/L | Blood glucose (mmol/L) 15 min (db/db mice [2]; dose 10 mg/kg): 11.3 ± 0.6 mmol/L | Blood glucose (mmol/L) 30 min (db/db mice [2]; dose 10 mg/kg): 12.3 ± 1.0 mmol/L | Blood glucose (mmol/L) 60 min (db/db mice [2]; dose 10 mg/kg): 7.1 ± 0.5 mmol/L | Blood glucose (mmol/L) 90 min (db/db mice [2]; dose 10 mg/kg): 6.5 ± 0.3 mmol/L | Blood glucose (mmol/L) 120 min (db/db mice [2]; dose 10 mg/kg): 6.2 ± 0.5 mmol/L | AUC0-2 h reduction rate (%) (db/db mice [2]; dose 10 mg/kg): 84.6%
